“And” between values parts separate entries of the source, which are not always exact repeats. Identical values can stand only once. Inconclusive results and toxic doses are left out.
System: B6C3F1 mice, Lewis lung carcinoma iv, survival T/C
Test: NCI In Vivo Anticancer Drug Screen. Data for tumor model Lewis Lung Carcinoma (intravenous) in B6C3F1 mice
Conditions: endpoint: median survival time, schedule: Q01DX009 (ip), higher = longer survival
Description: The antitumor activity of compounds was measured in mice bearing transplantable tumors. Survival or tumor size were measured and the results are expressed as the measurement made in the treated group (T) divided by the measurement made in the vehicle treated control group (C). The tumor model used in this assay is Lewis Lung Carcinoma (intravenous) in B6C3F1 mice

[1] = dose: 6.25 mg/kg/injection, vehicle: saline
[2] = dose: 12.5 mg/kg/injection, vehicle: saline
[3] = dose: 25.0 mg/kg/injection, vehicle: saline
[4] = dose: 50.0 mg/kg/injection, vehicle: saline
[5] = dose: 25.0 mg/kg/injection, vehicle: Klucel (hydroxypropylcellulose) (HPC)
[6] = dose: 50.0 mg/kg/injection, vehicle: Klucel (hydroxypropylcellulose) (HPC)
[7] = dose: 100.0 mg/kg/injection, vehicle: Klucel (hydroxypropylcellulose) (HPC)
[8] = dose: 12.5 mg/kg/injection, vehicle: saline with Tween-80
[9] = dose: 25.0 mg/kg/injection, vehicle: saline with Tween-80
[10] = dose: 50.0 mg/kg/injection, vehicle: saline with Tween-80
[11] = dose: 100.0 mg/kg/injection, vehicle: saline
[12] = dose: 200.0 mg/kg/injection, vehicle: saline

Compound: CC1CN1P1(N2CC2C)=NP(N2CC2C)(N2CC2C)=NP(N2CC2C)(N2CC2C)=N1 (stereo not given)
- T/C (dose: 3.12 mg/kg/injection, vehicle: saline): 100 % of control
- T/C [1]: 100 % of control
- T/C [2]: 98 % of control
- T/C [3]: 97 % of control
- T/C [4]: 90 % of control

Compound: COc1ccc2[nH]c3c(c2c1)CCNC3CC(C)CCC=C(C)C (stereo not given)
- T/C (dose: 6.25 mg/kg/injection, vehicle: Klucel (hydroxypropylcellulose) (HPC)): 98 % of control
- T/C (dose: 12.5 mg/kg/injection, vehicle: Klucel (hydroxypropylcellulose) (HPC)): 98 % of control
- T/C [5]: 92 % of control
- T/C [6]: 103 % of control
- T/C [7]: 105 % of control

Compound: CN=S(=O)(OCCCCCOS(=O)(=NC)c1ccccc1)c1ccccc1 (stereo not given)
- T/C (dose: 3.12 mg/kg/injection, vehicle: saline with Tween-80): 101 % of control
- T/C (dose: 6.25 mg/kg/injection, vehicle: saline with Tween-80): 105 % of control
- T/C [8]: 118 % of control
- T/C [9]: 108 % of control
- T/C [10]: 122 % of control

Compound: NC(=O)NO
- T/C [4]: 94 % of control
- T/C [11]: 98 % of control
- T/C [12]: 96 % of control

Compound: C[C@@]1(CO)[C@H](O)CC[C@@]2(C)[C@H]1CC[C@H]1C[C@@H]3C[C@@]12CC[C@@]3(O)COC(=O)CN
- T/C (dose: 0.2 mg/kg/injection, vehicle: saline + alcohol): 107 % of control
- T/C (dose: 0.4 mg/kg/injection, vehicle: saline + alcohol): 109 % of control
- T/C (dose: 0.8 mg/kg/injection, vehicle: saline + alcohol): 103 % of control
- T/C (dose: 1.6 mg/kg/injection, vehicle: saline + alcohol): 103 % of control
- T/C (dose: 12.5 micrograms/kg/injection, vehicle: saline + alcohol): 113 % of control
- T/C (dose: 25.0 micrograms/kg/injection, vehicle: saline + alcohol): 120 % of control
- T/C (dose: 50.0 micrograms/kg/injection, vehicle: saline + alcohol): 102 % of control
- T/C (dose: 100.0 micrograms/kg/injection, vehicle: saline + alcohol): 95 % of control
- T/C (dose: 200.0 micrograms/kg/injection, vehicle: saline + alcohol): 98 % of control

Compound: CN(C)[C@@H]1C(=O)C(C(N)=O)=C(O)[C@@]2(O)C(=O)C3=C(O)c4c(O)ccc(Cl)c4[C@@](C)(O)[C@H]3C[C@@H]12
- T/C [2]: 100 % of control
- T/C [3]: 100 % of control
- T/C [4]: 109 % of control
- T/C [11]: 113 % of control
- T/C [12]: 101 % of control

Compound: CCc1nc(N)nc(N)c1-c1ccc(Cl)c(N=[N+]=[N-])c1
- T/C (dose: 12.5 mg/kg/injection, vehicle: distilled water + Tween-80): 97 % of control
- T/C (dose: 25.0 mg/kg/injection, vehicle: distilled water + Tween-80): 100 % of control
- T/C (dose: 50.0 mg/kg/injection, vehicle: distilled water + Tween-80): 100 % of control
- T/C (dose: 100.0 mg/kg/injection, vehicle: distilled water + Tween-80): 106 % of control and 110 % of control
- T/C (dose: 200.0 mg/kg/injection, vehicle: distilled water + Tween-80): 119 % of control

Compound: O=C1N[C@@H]2C(=C[C@H](O)[C@@H](O)[C@H]2O)c2cc3c(c(O)c21)OCO3
- T/C (dose: 0.62 mg/kg/injection, vehicle: saline with Tween-80): 93 % of control
- T/C (dose: 0.63 mg/kg/injection, vehicle: saline with Tween-80): 112 % of control
- T/C (dose: 1.25 mg/kg/injection, vehicle: saline with Tween-80): 107 % of control and 109 % of control
- T/C (dose: 2.5 mg/kg/injection, vehicle: saline with Tween-80): 107 % of control and 117 % of control

Compound: C=C1C(=O)C2=CC1CCC(=O)C1(C)CCC(OC(C)=O)C(C)(C)C1CC2O (stereo not given)
- T/C (dose: 3.75 mg/kg/injection, vehicle: Klucel (hydroxypropylcellulose) (HPC)): 93 % of control
- T/C (dose: 7.5 mg/kg/injection, vehicle: Klucel (hydroxypropylcellulose) (HPC)): 110 % of control
- T/C (dose: 15.0 mg/kg/injection, vehicle: Klucel (hydroxypropylcellulose) (HPC)): 98 % of control
- T/C (dose: 30.0 mg/kg/injection, vehicle: Klucel (hydroxypropylcellulose) (HPC)): 96 % of control
- T/C (dose: 60.0 mg/kg/injection, vehicle: Klucel (hydroxypropylcellulose) (HPC)): 100 % of control

Compound: CC(/C=C/c1ccccc1)=Nc1ccccc1
- T/C [8]: 109 % of control
- T/C [9]: 101 % of control
- T/C [10]: 97 % of control
- T/C (dose: 100.0 mg/kg/injection, vehicle: saline with Tween-80): 99 % of control
- T/C (dose: 200.0 mg/kg/injection, vehicle: saline with Tween-80): 105 % of control

Compound: COc1ccc(C[C@H](N)C(=O)NC2C(CO)OC(n3cnc4c(N(C)C)ncnc43)C2O)cc1 (stereo not given in full)
- T/C (dose: 5.0 mg/kg/injection, vehicle: saline): 99 % of control
- T/C (dose: 10.0 mg/kg/injection, vehicle: saline): 104 % of control
- T/C (dose: 20.0 mg/kg/injection, vehicle: saline): 114 % of control
- T/C (dose: 40.0 mg/kg/injection, vehicle: saline): 109 % of control
- T/C (dose: 80.0 mg/kg/injection, vehicle: saline): 114 % of control

Compound: O=NN(CCCl)C(=O)NC1CCCCC1
- T/C (dose: 1.0 mg/kg/injection, vehicle: Klucel (hydroxypropylcellulose) (HPC)): 98 % of control
- T/C (dose: 2.0 mg/kg/injection, vehicle: Klucel (hydroxypropylcellulose) (HPC)): 112 % of control and 120 % of control
- T/C (dose: 2.0 mg/kg/injection, vehicle: other): 108 % of control
- T/C (dose: 4.0 mg/kg/injection, vehicle: other): 100 % of control
- T/C (dose: 8.0 mg/kg/injection, vehicle: Klucel (hydroxypropylcellulose) (HPC)): 295 % of control and 314 % of control
- T/C (dose: 8.0 mg/kg/injection, vehicle: other): 100 % of control
- T/C (dose: 16.0 mg/kg/injection, vehicle: other): 119 % of control
- T/C (dose: 32.0 mg/kg/injection, vehicle: other): 166 % of control

Compound: C[C@]12CCC(=O)C=C1CC[C@@H]1[C@@H]2C(=O)C[C@@]2(C)[C@H]1CC[C@]2(O)C(=O)CO
- T/C [5]: 95 % of control
- T/C [6]: 99 % of control
- T/C [7]: 98 % of control
- T/C (dose: 200.0 mg/kg/injection, vehicle: Klucel (hydroxypropylcellulose) (HPC)): 103 % of control
- T/C (dose: 400.0 mg/kg/injection, vehicle: Klucel (hydroxypropylcellulose) (HPC)): 93 % of control

Compound: O=c1n[n+]([O-])ccn1C1OC(CO)C(O)C1O (stereo not given)
- T/C [4]: 117 % of control
- T/C [11]: 107 % of control
- T/C (dose: 400.0 mg/kg/injection, vehicle: saline): 89 % of control

Compound: NNC(=S)N/N=C/c1ccccn1
- T/C (dose: 1.56 mg/kg/injection, vehicle: suspension in saline): 102 % of control
- T/C (dose: 3.12 mg/kg/injection, vehicle: suspension in saline): 86 % of control
- T/C [1]: 115 % of control
- T/C (dose: 6.25 mg/kg/injection, vehicle: suspension in saline): 98 % of control
- T/C [2]: 115 % of control
- T/C (dose: 12.5 mg/kg/injection, vehicle: suspension in saline): 108 % of control
- T/C [3]: 154 % of control
- T/C (dose: 25.0 mg/kg/injection, vehicle: suspension in saline): 101 % of control

Compound: COc1ccc(-c2csc(=[N+]3CCCCC3)s2)cc1
- T/C (dose: 1.56 mg/kg/injection, vehicle: water): 108 % of control
- T/C (dose: 3.12 mg/kg/injection, vehicle: water): 104 % of control
- T/C (dose: 6.25 mg/kg/injection, vehicle: water): 104 % of control
- T/C (dose: 12.5 mg/kg/injection, vehicle: water): 94 % of control
- T/C (dose: 25.0 mg/kg/injection, vehicle: water): 95 % of control

Source: PubChem BioAssay AID276 (DTP/NCI, 2004)
